The values below come from article PMC4700476, “Differential regulation by AMP and ADP of AMPK complexes containing different γ subunit isoforms” (Biochemical Journal, 2016).

Assay [1] deals with γ3-containing AMPK complexes in HEK-293 cells expressing FLAG–γ3. The assay can be described thus: Activation of AMPK complexes in intact cells (anti-FLAG IP kinase assay and pThr172 blot). The class given is cell-based, human. The note with it: for AMPK activation and Thr172 phosphorylation in intact cells: γ3 complex, 60 min, phenformin 10 mM, berberine 300 μM, A23187 10 μM, A-769662 300 μM. Here is the method:
(§1) HEK-293 cells expressing tetracycline-inducible human γ1, γ2 and γ3 with N-terminal FLAG tags were obtained by inserting the appropriate DNA into cells carrying a Flp recombinase target site with co-transfection of DNA encoding Flp recombinase; expression of the γ subunits was induced by adding tetracycline (1 μg·ml^−1) to the medium for 48 h.
(§2) HEK-293 cells were grown in Dulbecco's modified Eagle's medium (DMEM) containing 4.5 g/l glucose, 10% (v/v) FBS, 100 units/ml penicillin, 100 μg/ml streptomycin, 200 μg/ml hygromycin and 15 μg/ml blasticidin. The medium was replaced with medium containing 1 g/l glucose, 16 h before the treatments described in the text.
(§3) Cell lysates were made using the rapid lysis procedure. Lysates containing stably expressed recombinant FLAG-tagged γ subunits were immunoprecipitated from HEK-293 cell lysates (90 μg of lysate protein) by incubation at 4°C for 2 h on a roller mixer with 7.5 μl of EZview Red anti-FLAG M2 affinity gel (Sigma–Aldrich). After extensive washing, the immunoprecipitates (IPs) were assayed for AMPK activity on an orbital shaker as described previously except that the AMARA peptide substrate was used in all assays apart from those shown in Figures 3 and 4. The SAMS peptide was used in the latter because, for reasons that remain unclear, the degree of allosteric activation is always greater using this substrate.
(§4) Figure 2 Activation of FLAG–γ1,–γ2 or–γ3 by various AMPK activators Cells expressing FLAG–γ1,–γ2 or–γ3 were incubated with DMSO (vehicle), phenformin (10 mM), berberine (300 μM), A23187 (10 μM) or A-769662 (300 μM) for 60 min, AMPK complexes were immunoprecipitated using anti-FLAG antibodies and were analysed by kinase assays (upper panel) and Western blotting (lower panel). […] The absolute activities (nmol/min/mg of lysate protein) in the DMSO controls were: 0.16±0.01 (γ1), 0.24±0.01 (γ2) and 0.053±0.001 (γ3; means ± S.E.M., n=3).

For assay [2], the system named is γ2-containing AMPK complexes in HEK-293 cells expressing FLAG–γ2. The assay is described as above. In kind it is cell-based, human. The note with it: γ2 complex; 60 min; phenformin 10 mM, berberine 300 μM, A23187 10 μM, A-769662 300 μM. How it is done: as §1, §2, §3, §4
The test system of assay [3] is γ1-containing AMPK complexes in HEK-293 cells expressing FLAG–γ1. Described as above. The class given is cell-based, human. The note with it: γ1 complex; 60 min; phenformin 10 mM, berberine 300 μM, A23187 10 μM, A-769662 300 μM. How it is done: as §1, §2, §3, §4
The subject of assay [4] is γ3-containing AMPK complexes in mouse skeletal muscle. Further details: method as in PMID 25695398. Particulars: cited from earlier work.
Assay [5] deals with γ1-containing AMPK complexes in mouse skeletal muscle. Also noted: method as in PMID 25695398. Particulars: cited from earlier work.
Another assay relates to rat hepatocytes. Also noted: method as in PMID 17855357. The note with it: cited from earlier work.
The next assay has as its system AMPK. Also noted: method as in PMID 24746562. The note with it: AMPK not phosphorylated on Thr172; cited from earlier work.

Consider `COc1ccc2cc3[n+](cc2c1OC)CCc1cc2c(cc1-3)OCO2` [berberine, Berberine chloride], for which the “AMPK activation and Thr172 phosphorylation in intact cells” value in assay [1], in assay [2] and in assay [3] was “activated” each time.

On to `[H]/N=C(/N)N/C(=N/[H])NCCc1ccccc1` [phenformin], for which the “AMPK activation and Thr172 phosphorylation in intact cells” value in assay [1], in assay [2] and in assay [3] was “activated” throughout.

Take `NC(=O)c1ncn([C@@H]2O[C@H](CO)[C@@H](O)[C@H]2O)c1N` [AICAR, 5-aminoimidazole-4-carboxamide riboside]: the “activation of γ3-containing complexes” value in assay [4] is on record as “activated both isoforms”. Further, the “activation of γ1-containing complexes” value in assay [5] is reported as “activated both isoforms”.

`N#Cc1c(O)c2c(-c3ccc(-c4ccccc4O)cc3)csc2[nH]c1=O` [A-769662]: the “increases in Thr172 phosphorylation” value in the assay with rat hepatocytes is “negligible”. Moreover, the “phosphorylation of acetyl-CoA carboxylase (ACC)” value with rat hepatocytes is “marked phosphorylation”. Moreover, the entries for the “AMPK activation and Thr172 phosphorylation in intact cells” value in assay [1], in assay [2] and in assay [3] were “only modest increases”, “only modest increases” and “did not significantly activate”, respectively. In addition, the “allosteric activation of AMPK” value with AMPK was over 60 fold.

Take `O=C(O)c1ccc2c3c1cccc3c(=O)n1c3ccccc3nc21` [STO-609]: in assay [1] (results not shown), the “effect on activation of γ3 complex by A23187” value is listed as “completely blocked”.

As to `CNc1ccc2oc(C[C@H]3O[C@@]4(CC[C@H]3C)O[C@H]([C@H](C)C(=O)c3ccc[nH]3)[C@H](C)C[C@H]4C)nc2c1C(=O)O` [A23187], the “AMPK activation and Thr172 phosphorylation in intact cells” value in assay [1], in assay [2] and in assay [3] was “activated” each time.
